Among the data in US6620798B1, “Synergistic agents for enhancing tissue repair” (priority 2000, dated 2003) are mobility and pain dec values, retold here.

The assay can be described thus: Pain relief and mobility in patients with musculoskeletal trauma, flavonoid/flavonol versus NSAID. It is filed as in vivo, human. How it is done: A preparation containing 2000 mg of quercitin and 20 mg OPC flavonols was given to one group of patients every 6 hours relief of pain. A second group of patients were given 650 mg of […]) every 4 hours.
[1] abbreviates: Acute knee trauma patellar dislocation.

As for `Cc1ccc(-c2cc(C(F)(F)F)nn2-c2ccc(S(N)(=O)=O)cc2)cc1` [NSAID], the mobility entry was “mobility = 10” under setting [1], “mobility = 30” (Basketball "groin muscle pull") and “mobility = 25” (Blunt injury to R. shoulder). Also, the pain dec result runs as follows: under setting [1], “pain dec = 5”; (Basketball "groin muscle pull") “pain dec = 15”; (Blunt injury to R. shoulder) “pain dec = 20”.
